Experimental data: US20240116922A1, “IMIDAZO[1,2-A]PYRIDINE DERIVATIVES AS IRAK4 INHIBITORS AND THEIR USE IN THE TREATMENT OF DISEASE” (BIOGEN MA INC., priority 2020, published 2024)
pIC50: −log10 of the molar value. ≈ marks a conversion by molar mass, not a printed value.

Legend:
IRAK4 = IRAK4 (Homo sapiens (Human), UniProt Q9NWZ3); assay: IRAK4 MSD biochemical assay (2-hour 1 mM ATP); settings: 0.1 nM IRAK4, 1 mM ATP, 2 hour at room temperature
[1] = Kinetic solubility assay (CLND), pH 6.8; assay type: physicochemical; settings: aqueous buffer, kinetic from dmso stock; potassium phosphate buffer pH 6.8, 2% DMSO, 24 hours at ambient temperature
MDR1 = MDR1 (Homo sapiens (Human), UniProt P08183); assay: in vitro; settings: MDCK-MDR1
Sequence of MDR1 (P08183 whole entry): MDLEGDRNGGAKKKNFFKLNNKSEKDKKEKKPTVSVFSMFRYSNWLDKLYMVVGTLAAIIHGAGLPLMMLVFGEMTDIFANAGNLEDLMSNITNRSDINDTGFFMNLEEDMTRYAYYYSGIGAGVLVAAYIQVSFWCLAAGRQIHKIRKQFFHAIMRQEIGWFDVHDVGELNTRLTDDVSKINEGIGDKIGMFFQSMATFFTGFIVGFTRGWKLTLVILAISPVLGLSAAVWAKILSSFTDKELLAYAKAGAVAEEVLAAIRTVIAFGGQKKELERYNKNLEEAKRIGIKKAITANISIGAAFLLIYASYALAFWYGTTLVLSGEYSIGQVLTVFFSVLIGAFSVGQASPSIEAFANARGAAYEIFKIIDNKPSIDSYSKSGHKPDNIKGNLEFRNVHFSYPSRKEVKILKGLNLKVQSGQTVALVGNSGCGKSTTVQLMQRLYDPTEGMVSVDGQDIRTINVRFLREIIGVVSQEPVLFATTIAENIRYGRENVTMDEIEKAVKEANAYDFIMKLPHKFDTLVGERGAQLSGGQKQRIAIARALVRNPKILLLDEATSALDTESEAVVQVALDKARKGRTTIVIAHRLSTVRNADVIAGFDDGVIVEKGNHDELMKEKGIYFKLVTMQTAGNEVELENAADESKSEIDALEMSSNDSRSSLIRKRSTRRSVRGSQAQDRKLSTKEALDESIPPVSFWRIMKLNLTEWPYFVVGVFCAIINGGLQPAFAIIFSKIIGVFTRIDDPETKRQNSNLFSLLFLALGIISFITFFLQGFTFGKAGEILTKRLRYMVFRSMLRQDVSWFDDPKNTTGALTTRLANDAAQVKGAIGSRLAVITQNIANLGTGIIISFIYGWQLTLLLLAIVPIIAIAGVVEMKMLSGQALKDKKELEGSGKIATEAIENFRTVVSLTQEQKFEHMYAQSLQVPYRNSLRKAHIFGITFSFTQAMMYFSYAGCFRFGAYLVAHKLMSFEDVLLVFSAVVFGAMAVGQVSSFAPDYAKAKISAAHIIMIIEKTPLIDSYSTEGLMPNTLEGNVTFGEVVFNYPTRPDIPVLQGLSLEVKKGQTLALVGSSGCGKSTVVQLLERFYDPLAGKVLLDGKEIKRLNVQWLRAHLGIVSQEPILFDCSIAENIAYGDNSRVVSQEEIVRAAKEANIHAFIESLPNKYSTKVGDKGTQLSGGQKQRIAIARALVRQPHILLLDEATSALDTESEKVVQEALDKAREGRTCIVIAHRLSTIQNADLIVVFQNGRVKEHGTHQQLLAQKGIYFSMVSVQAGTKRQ

Sequence of IRAK4 (Q9NWZ3 whole entry): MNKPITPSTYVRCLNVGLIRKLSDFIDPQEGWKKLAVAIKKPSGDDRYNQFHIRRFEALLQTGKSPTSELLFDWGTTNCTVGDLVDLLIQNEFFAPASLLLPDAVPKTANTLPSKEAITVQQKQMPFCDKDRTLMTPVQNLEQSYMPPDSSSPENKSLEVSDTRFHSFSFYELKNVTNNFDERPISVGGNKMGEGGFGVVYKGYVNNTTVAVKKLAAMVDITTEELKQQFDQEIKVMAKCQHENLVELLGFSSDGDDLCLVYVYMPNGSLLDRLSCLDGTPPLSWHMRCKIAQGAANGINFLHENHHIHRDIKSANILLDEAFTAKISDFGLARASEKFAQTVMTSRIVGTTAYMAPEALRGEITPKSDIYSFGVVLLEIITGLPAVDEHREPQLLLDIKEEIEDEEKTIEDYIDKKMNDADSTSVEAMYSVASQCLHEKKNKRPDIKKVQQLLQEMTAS

SMILES | pIC50 (IRAK4) | solubility kinetic at 24 h [1] | efflux ratio at 120 min, 1 μM (MDR1)
O=C(Nc1cccn(C2CC2)c1=O)c1cn2cc(C34COC(C3)C4)nc2cc1OC1CCC1 [Example 37, 2-(2-oxabicyclo[2.1.1]hexan-4-yl)-7-cyclobutoxy-N-(1-cyclopropyl-2-oxo-1,2-dihydropyridin-3-yl)imidazo[1,2-a]pyridine-6-carboxamide] | 8.51 | 64.4 µg/mL (≈ 144 µM) | 10.2
CC[C@@H](C)Oc1nc2nc([C@@]34CC[C@@](C)(C3)OC4)cn2cc1C(=O)Nc1cccn(C2CC2)c1=O [Example 48, 7-((R)-sec-butoxy)-N-(1-cyclopropyl-2-oxo-1,2-dihydropyridin-3-yl)-2-((1S,4R)-1-methyl-2-oxabicyclo[2.2.1]heptan-4-yl)imidazo[1,2-a]pyrimidine-6-carboxamide] | 9.10 | 63.2 µg/mL (≈ 132 µM) | 3.2
CC[C@H](C)Oc1nc2nc(C34CCC(CF)(C3)OC4)cn2cc1C(=O)Nc1cccn(C2CC2)c1=O (stereo partly drawn) [Example 56, 7-((S)-sec-butoxy)-N-(1-cyclopropyl-2-oxo-1,2-dihydropyridin-3-yl)-2-(1-(fluoromethyl)-2-oxabicyclo[2.2.1]heptan-4-yl)imidazo[1,2-a]pyrimidine-6-carboxamide] | 9.22 | 67.5 µg/mL (≈ 136 µM) | 4.1
COC12CC(c3cn4cc(C(=O)Nc5cccn(C6CC6)c5=O)c(OC(C)C)cc4n3)(C1)C2 [Example 62, N-(1-cyclopropyl-2-oxo-1,2-dihydropyridin-3-yl)-7-isopropoxy-2-(3-methoxybicyclo[1.1.1]pentan-1-yl)imidazo[1,2-a]pyridine-6-carboxamide] | 9.40 | 58.2 µg/mL (≈ 130 µM) | 3.6
CC12CC(c3cn4cc(C(=O)Nc5ccnn(C6CC6)c5=O)c(OC5CCC5)nc4n3)(CO1)C2 [Example 72, 7-cyclobutoxy-N-(2-cyclopropyl-3-oxo-2,3-dihydropyridazin-4-yl)-2-(1-methyl-2-oxabicyclo[2.1.1]hexan-4-yl)imidazo[1,2-a]pyrimidine-6-carboxamide] | 8.38 | 1.5 µg/mL (≈ 3.24 µM) | 1.7
CC(C)Oc1cc2nc([C@@]34CC[C@@](C)(C3)OC4)cn2cc1C(=O)Nc1ccnn(C2CC2)c1=O [Example 74, N-(2-cyclopropyl-3-oxo-2,3-dihydropyridazin-4-yl)-7-isopropoxy-2-((1S,4R)-1-methyl-2-oxabicyclo[2.2.1]heptan-4-yl)imidazo[1,2-a]pyridine-6-carboxamide] | 8.92 | 47.5 µg/mL (≈ 102 µM) | 1
CC(C)Oc1cc2nc([C@]34CC[C@](C)(C3)OC4)cn2cc1C(=O)Nc1ccnn(C2CC2)c1=O [Example 75, N-(2-cyclopropyl-3-oxo-2,3-dihydropyridazin-4-yl)-7-isopropoxy-2-((1R,4S)-1-methyl-2-oxabicyclo[2.2.1]heptan-4-yl)imidazo[1,2-a]pyridine-6-carboxamide] | 8.80 | 40.4 µg/mL (≈ 87.2 µM) | 1.4
CC(C)Oc1cc2nc([C@@]34CC[C@@](C)(C3)OC4)cn2cc1C(=O)Nc1cccn(C2C[C@H]2C)c1=O (stereo partly drawn) [Example 98, trans-7-isopropoxy-2-((1S,4R)-1-methyl-2-oxabicyclo[2.2.1]heptan-4-yl)-N-(1-(2-methylcyclopropyl)-2-oxo-1,2-dihydropyridin-3-yl)imidazo[1,2-a]pyridine-6-carboxamide] | 9.15 | 89.7 µg/mL (≈ 188 µM) | 2.1
CC(Oc1cc2nc(C34COC(C)(C3)C4)cn2cc1C(=O)Nc1cccn(C2CC2)c1=O)C(F)F [Example 102, (S)—N-(1-cyclopropyl-2-oxo-1,2-dihydropyridin-3-yl)-7-((1,1-difluoropropan-2-yl)oxy)-2-(1-methyl-2-oxabicyclo[2.1.1]hexan-4-yl)imidazo[1,2-a]pyridine-6-carboxamide] | 9.52 | 69.3 µg/mL (≈ 143 µM) | 10.8
CC12CC(c3cn4cc(C(=O)Nc5cccn(C6CC6)c5=O)c(OC5CC5)cc4n3)(CO1)C2 [Example 104, 7-cyclopropoxy-N-(1-cyclopropyl-2-oxo-1,2-dihydropyridin-3-yl)-2-(1-methyl-2-oxabicyclo[2.1.1]hexan-4-yl)imidazo[1,2-a]pyridine-6-carboxamide] | 8.77 | 74.5 µg/mL (≈ 167 µM) | 4.3
CC(C)Oc1cc2nc([C@@]34CC[C@@](C)(C3)OC4)cn2cc1C(=O)Nc1cccn([C@@H]2C[C@H]2F)c1=O [Example 116, N-(1-((1R,2R)-2-fluorocyclopropyl)-2-oxo-1,2-dihydropyridin-3-yl)-7-isopropoxy-2-((1S,4R)-1-methyl-2-oxabicyclo[2.2.1]heptan-4-yl)imidazo[1,2-a]pyridine-6-carboxamide] | 9.22 | 55.6 µg/mL (≈ 116 µM) | 5.3
COCC12CC(c3cn4cc(C(=O)Nc5cccn([C@H]6C[C@H]6F)c5=O)c(OC5CCC5)nc4n3)(CO1)C2 [Example 128, 7-cyclobutoxy-N-(1-((1S,2R)-2-fluorocyclopropyl)-2-oxo-1,2-dihydropyridin-3-yl)-2-(1-(methoxymethyl)-2-oxabicyclo[2.1.1]hexan-4-yl)imidazo[1,2-a]pyrimidine-6-carboxamide] | 9.52 | 72.5 µg/mL (≈ 142 µM) | 20.8
CC(C)Oc1cc2nc(C34COC(C)(C3)C4)cn2cc1C(=O)Nc1cccn([C@H]2C[C@H]2C)c1=O [Example 134, 7-isopropoxy-2-(1-methyl-2-oxabicyclo[2.1.1]hexan-4-yl)-N-(1-((1S,2R)-2-methylcyclopropyl)-2-oxo-1,2-dihydropyridin-3-yl)imidazo[1,2-a]pyridine-6-carboxamide] | 9.30 | 38.6 µg/mL (≈ 83.5 µM) | 4.4
CC(C)Oc1cc2nc(C34COC(C)(C3)C4)cn2cc1C(=O)Nc1cccn([C@@H]2C[C@H]2C)c1=O [Example 139, 7-isopropoxy-2-(1-methyl-2-oxabicyclo[2.1.1]hexan-4-yl)-N-(1-((1R,2R)-2-methylcyclopropyl)-2-oxo-1,2-dihydropyridin-3-yl)imidazo[1,2-a]pyridine-6-carboxamide] | 9.30 | 38.4 µg/mL (≈ 83 µM) | 3
CC(C)Oc1c(C(=O)Nc2cccn([C@H]3C[C@@H]3C)c2=O)cn2cc(C34COC(C)(C3)C4)nc2c1F [Example 146, 8-fluoro-7-isopropoxy-2-(1-methyl-2-oxabicyclo[2.1.1]hexan-4-yl)-N-(1-((1S,2S)-2-methylcyclopropyl)-2-oxo-1,2-dihydropyridin-3-yl)imidazo[1,2-a]pyridine-6-carboxamide] | 9.05 | 29.7 µg/mL (≈ 61.8 µM) | 1.7
CC(C)Oc1cc2nc([C@]34CC[C@](C)(C3)OC4)cn2cc1C(=O)Nc1cccn([C@H]2C[C@H]2F)c1=O [Example 171, N-(1-((1S,2R)-2-fluorocyclopropyl)-2-oxo-1,2-dihydropyridin-3-yl)-7-isopropoxy-2-((1R,4S)-1-methyl-2-oxabicyclo[2.2.1]heptan-4-yl)imidazo[1,2-a]pyridine-6-carboxamide] | 9.70 | 47.9 µg/mL (≈ 99.7 µM) | 9.8
